In ChEMBL document CHEMBL4043217, “A prodrug design for improved oral absorption and reduced hepatic interaction” (Bioorg Med Chem, 2017):
Activity calls are given as the source filed them. The rule behind the calls is not given here.

Columns and labels:
[1] = Prodrug conversion in human plasma assessed as esterase-mediated estradiol release by measuring saponification level after 10 mins by ELISA method; assay type: ADME; details: isolated protein
Rattus norvegicus [2] = experiment: Estrogenic effect in ovariectomized adult female Wistar rat assessed as uterine weight level at 1 ug, po dosed from day 1 to 3 and measured on day 4 relative to untreated control; assay type: functional
Rattus norvegicus [3] = experiment: Estrogenic effect in ovariectomized adult female Wistar rat assessed as uterine weight level at 10 ug, po dosed from day 1 to 3 and measured on day 4 relative to untreated control; assay type: functional
Carbonic anhydrase 2 = Carbonic anhydrase 2 (Homo sapiens, UniProt P00918)
Description: Inhibition of human CA2 catalytic activity pre-incubated for 15 mins followed by 4-NPA substrate addition and measured every 12 to 15 secs for 5 mins by spectrophotometry

Rattus norvegicus [4] = experiment: Estrogenic effect in ovariectomized adult female Wistar rat assessed as uterine weight level at 3 ug, po dosed from day 1 to 3 and measured on day 4 relative to untreated control; assay type: functional
[5] = Clearance in Sprague-Dawley rat blood at 1 mg/kg, iv; assay type: ADME, organism-based
[6] = Volume of distribution in Sprague-Dawley rat blood at 1 mg/kg, iv; assay type: ADME, organism-based
[7] = Half life in Sprague-Dawley rat blood at 5 mg/kg, po; assay type: ADME, organism-based
Estrogen receptor = molecular target: T1, Estrogen receptor (Homo sapiens, UniProt P03372); experiment: Binding affinity to ER (unknown origin) expressed in UAS-bla GripTite 293 cells by Select screen competitive binding assay; assay type: cell-based
T1 sequence (P03372 whole entry): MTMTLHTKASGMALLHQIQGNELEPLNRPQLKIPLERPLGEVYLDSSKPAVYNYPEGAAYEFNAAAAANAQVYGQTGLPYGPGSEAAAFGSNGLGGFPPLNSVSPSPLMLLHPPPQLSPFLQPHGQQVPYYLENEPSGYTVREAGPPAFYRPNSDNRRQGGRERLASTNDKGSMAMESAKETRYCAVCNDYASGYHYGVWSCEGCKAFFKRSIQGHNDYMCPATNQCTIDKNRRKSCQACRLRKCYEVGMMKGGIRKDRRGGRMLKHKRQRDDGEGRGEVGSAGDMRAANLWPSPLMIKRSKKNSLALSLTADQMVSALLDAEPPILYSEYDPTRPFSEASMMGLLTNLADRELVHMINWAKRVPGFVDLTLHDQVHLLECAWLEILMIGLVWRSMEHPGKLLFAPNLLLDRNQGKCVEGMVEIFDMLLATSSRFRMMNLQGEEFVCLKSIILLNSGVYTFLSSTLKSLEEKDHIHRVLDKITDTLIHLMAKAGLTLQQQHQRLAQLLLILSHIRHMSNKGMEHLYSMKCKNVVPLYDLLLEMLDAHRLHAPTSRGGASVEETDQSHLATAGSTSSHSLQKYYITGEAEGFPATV

[8] = Clearance in Sprague-Dawley rat plasma at 1 mg/kg, iv; assay type: ADME, organism-based
[9] = Volume of distribution in Sprague-Dawley rat plasma at 1 mg/kg, iv; assay type: ADME, organism-based
[10] = Half life in Sprague-Dawley rat plasma at 5 mg/kg, po; assay type: ADME, organism-based
[11] = Oral bioavailability life in Sprague-Dawley rat plasma at 5 mg/kg; assay type: ADME, organism-based
[12] = Oral bioavailability life in Sprague-Dawley rat blood at 5 mg/kg; assay type: ADME, organism-based
Rattus norvegicus [13] = experiment: AUC (0 to 3 hrs) in rat at 3 mg, po; assay type: ADME; design: time < 3 hr, dose 3 mg, route oral; details: in vivo
Rattus norvegicus [14] = experiment: Increase in testosterone level in orally dosed male rat serum relative to testosterone-propionate; assay type: functional, organism-based

## C[C@]12CC[C@@H]3c4ccc(O)cc4CC[C@H]3[C@@H]1CC[C@@H]2OC(=O)[C@H](Cc1ccccc1)NC(=O)c1ccc(S(N)(=O)=O)cc1
[1]
  Drug metabolism: 75%
Rattus norvegicus [2]
  Activity: 95%
Rattus norvegicus [3]
  Activity: 117%
Carbonic anhydrase 2
  IC50: 0.1 µM

## C[C@]12CC[C@@H]3c4ccc(O)cc4CC[C@H]3[C@@H]1CC[C@@H]2OC(=O)[C@@H]1CCCN1C(=O)c1ccc(S(N)(=O)=O)o1
Rattus norvegicus [3]
  Activity: 318%
Carbonic anhydrase 2
  IC50: 0.25 µM

## C[C@]12CC[C@@H]3c4ccc(O)cc4CC[C@H]3[C@@H]1CC[C@@H]2OC(=O)[C@@H]1CCCN1C(=O)c1ccc(-c2ccc(S(N)(=O)=O)cc2)cc1
Rattus norvegicus [3]
  Activity: 309%
Carbonic anhydrase 2
  IC50: 0.29 µM

## C[C@]12CC[C@@H]3c4ccc(O)cc4CC[C@H]3[C@@H]1CC[C@@H]2OC(=O)[C@@H]1CCCN1S(N)(=O)=O
Rattus norvegicus [3]
  Activity: 268%
Carbonic anhydrase 2
  IC50: 10 µM

## C[C@]12CC[C@@H]3c4ccc(O)cc4CC[C@H]3[C@@H]1CC[C@@H]2OC(=O)CNC(=O)c1ccc(S(N)(=O)=O)cc1
[1]
  Drug metabolism: 87%
Carbonic anhydrase 2
  IC50: 0.065 µM

## CC(C)[C@H](NC(=O)c1ccc(S(N)(=O)=O)cc1)C(=O)O[C@H]1CC[C@H]2[C@@H]3CCc4cc(O)ccc4[C@H]3CC[C@]12C
[1]
  Drug metabolism: 89%
Rattus norvegicus [2]
  Activity: 105%
Rattus norvegicus [3]
  Activity: 267%
Carbonic anhydrase 2
  IC50: 0.202 µM

## C[C@]12CC[C@@H]3c4ccc(O)cc4CC[C@H]3[C@@H]1CC[C@@H]2OC(=O)[C@@H]1CCCN1Cc1ccc(S(N)(=O)=O)cc1
Rattus norvegicus [3]
  Activity: 272%
Carbonic anhydrase 2
  IC50: 0.129 µM

## C[C@H](NC(=O)c1ccc(S(N)(=O)=O)cc1)C(=O)O[C@H]1CC[C@H]2[C@@H]3CCc4cc(O)ccc4[C@H]3CC[C@]12C
[1]
  Drug metabolism: 70%
Rattus norvegicus [4]
  Activity: 163%
Carbonic anhydrase 2
  IC50: 0.25 µM

## C[C@]12CC[C@@H]3c4ccc(O)cc4CC[C@H]3[C@@H]1CC[C@@H]2OC(=O)[C@@H]1CCCN1C(=O)c1ccc(S(N)(=O)=O)cn1
Rattus norvegicus [3]
  Activity: 268%
Carbonic anhydrase 2
  IC50: 5 µM

## Cc1cc(C(=O)N2CCC[C@H]2C(=O)O[C@H]2CC[C@H]3[C@@H]4CCc5cc(O)ccc5[C@H]4CC[C@]23C)ccc1S(N)(=O)=O
Rattus norvegicus [3]
  Activity: 258%
Carbonic anhydrase 2
  IC50: 0.21 µM

## C[C@]12CC[C@@H]3c4ccc(O)cc4CC[C@H]3[C@@H]1CC[C@@H]2OC(=O)[C@@H]1CCCN1C(=O)c1ccc(S(N)(=O)=O)cc1
[5]
  clearance: 3.86 mL/min/kg
[6]
  Vd: 0.24 L/kg
[7]
  half-life: 4.9 h
Rattus norvegicus [2]
  Activity: 244%
Estrogen receptor
  EC50: 0.432 µM
[8]
  clearance: 62.8 mL/min/kg
[9]
  Vd: 5.68 L/kg
[10]
  half-life: 4.58 h
[11]
  bioavailability: 102%
[12]
  bioavailability: 122%

## C[C@@H](C(=O)O[C@H]1CC[C@H]2[C@@H]3CCc4cc(O)ccc4[C@H]3CC[C@]12C)N(C)C(=O)c1ccc(S(N)(=O)=O)cc1
[1]
  Drug metabolism: 84%
Rattus norvegicus [2]
  Activity: 145%
Rattus norvegicus [3]
  Activity: 289%
Carbonic anhydrase 2
  IC50: 0.325 µM

## C[C@]12CC[C@@H]3c4ccc(O)cc4CC[C@H]3[C@@H]1CC[C@@H]2OC(=O)[C@@H]1CCCN1c1ccc(S(N)(=O)=O)cc1
Rattus norvegicus [3]
  Activity: 92%
Carbonic anhydrase 2
  IC50: 0.198 µM

## CC(C)(NC(=O)c1ccc(S(N)(=O)=O)cc1)C(=O)O[C@H]1CC[C@H]2[C@@H]3CCc4cc(O)ccc4[C@H]3CC[C@]12C
[1]
  Drug metabolism: 97%
Rattus norvegicus [2]
  Activity: 107%
Rattus norvegicus [3]
  Activity: 97%
Carbonic anhydrase 2
  IC50: 0.232 µM

## C[C@]12CC[C@@H]3c4ccc(O)cc4CC[C@H]3[C@@H]1CC[C@@H]2OC(=O)[C@@H]1CCCN1C(=O)c1cccc(-c2cccc(S(N)(=O)=O)c2)c1
Rattus norvegicus [3]
  Activity: 216%
Carbonic anhydrase 2
  IC50: 10 µM

## C[C@]12CC[C@@H]3c4ccc(O)cc4CC[C@H]3[C@@H]1CC[C@@H]2OC(=O)[C@@H]1CCCN1C(=O)c1coc(S(N)(=O)=O)c1
Rattus norvegicus [3]
  Activity: 313%
Carbonic anhydrase 2
  IC50: 0.007 µM

## C[C@]12CC[C@@H]3c4ccc(O)cc4CC[C@H]3[C@@H]1CC[C@@H]2OC(=O)[C@@H]1CCCN1C(=O)c1cccc(-c2ccc(S(N)(=O)=O)cc2)c1
Rattus norvegicus [3]
  Activity: 153%
Carbonic anhydrase 2
  IC50: 0.12 µM

## C[C@]12CC[C@@H]3c4ccc(O)cc4CC[C@H]3[C@@H]1CC[C@@H]2OC(=O)[C@@H]1CCCN1C(=O)Cc1ccc(S(N)(=O)=O)cc1
Rattus norvegicus [3]
  Activity: 267%
Carbonic anhydrase 2
  IC50: 0.5 µM

## C[C@]12CC[C@@H]3c4ccc(O)cc4CC[C@H]3[C@@H]1CC[C@@H]2OC(=O)[C@@H]1CCCN1C(=O)c1cccc(S(N)(=O)=O)c1
Carbonic anhydrase 2
  IC50: 0.3 µM

## C[C@]12CC[C@H]3[C@@H](CCC4=CC(=O)CC[C@@]43C)[C@@H]1CC[C@@H]2OC(=O)[C@@H]1CCCN1C(=O)c1ccc(S(N)(=O)=O)cn1
Rattus norvegicus [13]
  AUC: 330 ng/mL
Rattus norvegicus [14]
  Activity: Active

## C[C@]12CC[C@@H]3c4ccc(O)cc4CC[C@H]3[C@@H]1CC[C@@H]2OC(=O)[C@@H]1CCCN1C(=O)c1ccc(S(N)(=O)=O)nc1
Rattus norvegicus [3]
  Activity: 259%
Carbonic anhydrase 2
  IC50: 0.25 µM
